Each structure is given as a SMILES string. “And” between values parts separate entries of the source, which are not always exact repeats. Identical values can stand only once.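 In this assay, cells in 96-well plates receive the compound at five concentrations for 48 hours. Endpoints are linearly interpolated between the surrounding concentrations. At the GI50, growth is halved. At the TGI there is no net growth.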

Experiment in all cases: NCI anticancer screen, dose series, 48 h
For assay [1], the system named is DMS 273 small cell lung.
Assay [2] relates to RXF-631 renal.
For assay [3], the system named is DLD-1 colon.
The subject of assay [4] is M19-MEL melanoma.
Assay [5] relates to KM20L2 colon.
In assay [6] the test system is XF 498 CNS.
Assay [7] concerns SNB-78 CNS.
For assay [8], the system named is MDA-N.
Assay [9] concerns HOP-18 NSCLC.

As to `COc1c(C)n(CCO)ccc1=O`, the TGI in [1], in [2], in assay [3], in assay [4], in assay [5] and in [6] was greater than 100 µM throughout. For the same compound, the TGI in assay [7] is greater than 100 µM.
For `CC1CC(O)C(=O)C(O[C@@H]2C[C@@H]3CC[C@@H]4[C@H](CC[C@]5(C)C(C6=CC(=O)OC6)CC[C@]45O)[C@@]3(C=O)C[C@H]2O)O1` (some centres undefined), the TGI in assay [8] turned out to be 0.199 µM.
For the compound `COC(=O)c1cc2c(o1)-c1nccc3c1c(nc1ccccc13)C2=O`, in assay [8], the GI50 was 0.691 µM and the TGI stood at 2.22 µM.
Regarding `CCOC(=O)NC(=O)c1cn(C(CC)COC(=O)NCCCCCCNC(=O)OCC(CC)n2cc(C(=O)NC(=O)OCC)c(=O)[nH]c2=O)c(=O)[nH]c1=O` (centres undefined), the TGI in assay [1], in [4], in [5], in assay [9] and in assay [7] was greater than 100 µM throughout.
Consider `COC(=O)/C(=N/O)C(C(=O)C=C(C)C)C(=O)C(=O)Nc1nc2ccc([N+](=O)[O-])cc2s1` (centres undefined), for which the TGI in assay [1], in [4], in [5], in assay [6] and in [7] was greater than 100 µM each time.
In the case of `CCOCN1COCN(C)C1=O`, the TGI in assay [1], in assay [2], in [3], in [4], in assay [5] and in assay [9] was greater than 100 µM in each case. Also, the TGI in assay [6] and in [7] was greater than 100 µM each time.
Consider `O=C(/C=C/c1ccccc1)c1ccccc1`, for which the TGI in assay [8] was greater than 10 µM.
Same read-out and setting: next, `NCCNCC1CCNCC1`: greater than 100 µM.
Take `Cc1cc2c(c(C(N)=O)c1C)-c1ccccc1C2=O`: the TGI in [1], in [2], in [3], in assay [4], in [5] and in [9] was greater than 100 µM throughout. Moreover, the TGI in assay [7] is greater than 100 µM.
In assay [8], `Cn1c(=O)c2c(nc(C(=N)SCC(=O)O)n2C)n(C)c1=O` gave a TGI greater than 100 µM.
On the same count and under the same terms, next, `CCC(C)(O)c1cnc(CC(C)C)c(=O)n1O` (centres undefined): greater than 100 µM.
Consider `O=C(Cc1nc2c3c(ccc2[nH]c1=O)C(=O)c1ccccc1C3=O)C(=O)Nc1ccccc1[N+](=O)[O-]`, for which the TGI in assay [4] was determined as 79.5 µM; in assay [5] it was 39.6 µM; in assay [6] it was 43.1 µM; in [7], 16.5 µM.
With `COc1cccc(/C=N/[N-]C(=O)c2ccncc2)c1[O-].COc1cccc(/C=N/[N-]C(=O)c2ccncc2)c1[O-].[O]=[U](=[O])([OH2+])[OH2+]`, the GI50 is 4.2 µM in [1]; 4.19 µM in assay [3]; 5.83 µM in assay [4]; 3.14 µM in assay [5]; 12.1 µM in [9]; 4.75 µM in [6]. The GI50 in [7] is greater than 87.7 µM. Further, the TGI in assay [1] is greater than 56.6 µM; in assay [3], greater than 100 µM; in assay [4], greater than 100 µM; in [5], greater than 100 µM; in assay [9], 88.6 µM; in [6] it was 37.6 µM. For the same compound, the TGI in assay [7] is greater than 100 µM.
Take `OC(c1cc(-c2ccc(C(F)(F)F)cc2)nc(C(F)(F)F)c1)C1CCCCN1` (centres undefined): the TGI in assay [8] worked out at 3.04 µM.
On to `Nc1c(-c2ccccc2-c2c(N)[n+]([O-])c3ccccc3[n+]2[O-])[n+]([O-])c2ccccc2[n+]1[O-]`, for which the TGI was 38.7 µM in assay [1]; greater than 100 µM in [3]; 60.3 µM in assay [4]; greater than 100 µM in [5]; greater than 86 µM in assay [9]; greater than 100 µM in [7].
Consider `Cn1c(=O)nc2n(-c3cc(C(F)(F)F)cc(C(F)(F)F)c3)c3ccccc3nc-2c1=O`, for which the TGI in [1] was greater than 100 µM; in [4] it was 29.5 µM; in assay [5], greater than 100 µM; in assay [6], greater than 100 µM; in [7], greater than 100 µM.
As to `Nc1ccccc1O.O.O=C(O)C1[O][Sb][O]C1C(=O)O` (centres undefined), in [8], the GI50 is 17.4 µM and the TGI was 42.2 µM.
As to `CN(C)C(=S)SSC(=S)N(C)C`, the TGI in assay [1] is greater than 100 µM; in [2], greater than 100 µM; in [3], greater than 64 µM; in [4], greater than 40 µM; in [5], greater than 100 µM; in [8], 30.3 µM and 50.9 µM. Further, the values for the TGI in assay [9], in assay [6] and in [7] were greater than 100 µM, greater than 88.3 µM and greater than 100 µM, respectively.
With `CCC1CN2CCc3cc(OC)c(OC)cc3C2CC1CC1c2cc(OC)c(OC)cc2CCN1C(=O)C1CCCN1` (centres undefined), the TGI in [1] is greater than 100 µM; in assay [2], 90.8 µM; in [3], 77.4 µM; in assay [4] it was 36.6 µM; in [9], greater than 100 µM; in assay [6], 39.2 µM. Moreover, in assay [7], the TGI is greater than 100 µM.
As for `c1ccc2c(c1)[nH]c1c2cc[n+]2cc3c(cc12)CCCC3`, the TGI in assay [8] was found to be 3.21 µM.
Regarding `COC(=O)/C([Se]c1c(C)cc(C)cc1C)=C(/[Se]c1c(C)cc(C)cc1C)C(=O)OC`, the TGI in [1], in assay [2], in assay [3], in [4], in [5] and in assay [9] was greater than 100 µM throughout. In addition, the TGI in assay [7] was greater than 100 µM.
As for `CC(C(=O)c1ccc(Cl)cc1)/C(=N/NC(=O)NN)C(=O)Nc1cccc(C(F)(F)F)c1` (centres undefined), the TGI in assay [1], in assay [2], in assay [3], in assay [4], in assay [5] and in [9] was greater than 100 µM in each case. For the same compound, the TGI in [6] and in assay [7] was greater than 100 µM throughout.
`Cc1ccccc1C1=[N+]([O-])c2ccc(Cl)cc2C1=O`: the TGI came to 16.8 µM in assay [2]; 19.6 µM in assay [3]; 21.2 µM in assay [4]; 16.9 µM in assay [5]; 35.4 µM in assay [9]; 14.3 µM in assay [6].

The values are drawn from PubChem BioAssay (NCI).
